Laboratory results taken from US20260242738A1, “ALK5 INHIBITORS FOR EFFICIENT DERIVATION OF MESENCHYMAL STEM CELLS FROM EMBRYONIC STEM CELLS” (SCRIPPS HEALTH, priority 2022, published 2026).

Columns and labels:
pluripotent stem cells = conditions: LLY-507 and AZD5153 combined, monolayer on Matrigel-coated plates; cited from earlier work
hiPSC = conditions: CHIR99021 and TTNPB used together; cited from earlier work
HADC 100 ES-MSC = assay: Pellet culture chondrogenesis, histology and immunohistochemistry; type: cell-based, human; conditions: HADC 100 ES-MSC, 3 weeks, Safranin-O, collagen type I and II
Procedure: Monolayer-expanded ES-MSC (passage 2-5) were detached using Accutase® and 0.5×10^6 cells in 0.5 ml of chondrogenic medium were centrifuged at 900 rpm (~770 G) for 5 minutes to form high-density pellets. At least 5-6 pellets, for each ES-MSC condition, were cultured in serum-free chondrogenic medium consisting of Dulbecco's Modified Eagle Medium (Mediatech Inc., Manassas, VA), 1×ITS supplement (Sigma-Aldrich, St. Louis, MO), 100 nM Dexamethasone (Sigma), 1.25 mg/ml human serum albumin (Bayer, Leverkusen, Germany), 100 μM ascorbic acid 2-phosphate (Sigma), 1% penicillin/streptomycin/gentamycin (PSG, Gibco, Carlsbad, CA), and 10 ng/ml TGFβ3 (PeproTech, Rocky Hill, NJ). Pellets for ex vivo implantation were cultured for 3 days before implantation; pellets for histologic or gene expression analysis were maintained in culture for 3 weeks with media changes every 3 to 4 days.
Cell pellets and explants were fixed in Z-Fix (3.7% formaldehyde, Anatech Ltd., Battle Creek, MI), processed for embedding in paraffin, and cut into 4 μm-thick sections. Sections were stained with Safranin-O and Fast Green to visualize glycosaminoglycan distribution in the tissues. Alzarin Red S staining was used to detect the presence of mineralized matrix.
For assessment of collagen types I and II, sections were pretreated with pepsin (Digest-All 3, Thermo Fisher Scientific) for 9 minutes at 37° C. in a humid chamber before incubation at 4° C. for 12 to 16 hours with the following primary antibodies: rabbit anti-human collagen type I antibody (Ab 34710, Abcam, Cambridge, MA) 1 μg/ml; or mouse anti-human collagen type II (II-II6B3, Hybridoma Bank, University of Iowa) 2 μg/ml. For color development, the ImmPRESS secondary DAB (brown) or AP (red) kits (Vector Laboratories, Burlingame, CA) was used. Isotype controls were used to monitor non-specific staining.

[1] = test system: ex vivo osteoarthritic cartilage explants; assay: Ex vivo human osteoarthritic cartilage defect repair with fibrin-ECM constructs or pellets; type: cell-based; conditions: implanted as hydrogel or pellets, 3 weeks, serum-free chondrogenic medium with TGFβ3 10 ng/ml
Procedure: Monolayer cultured ES-MSC were suspended in a hydrogel wafer composed of collagen II (Innovative Research Inc. Novi, MI), hyaluronate (Supartz FX sodium hyaluronate, Seikagaku Corp. Tokyo, Japan), chondroitin sulfate (Sigma-Aldrich) and fibrin (Baxter Healthcare, Deerfield, IL) at a density of 20×10^6 cells per ml. The fibrinogen and thrombin components were prepared separately. To each fibrinogen component, 2 mg/ml sodium hyaluronate, 2 mg/ml chondroitin sulfate and 6 mg/ml collagen II was added (2× concentration of final). Cells were added to the thrombin component at a density of 40×10^6 cells per ml. Thrombin and fibrinogen components in individual syringes were attached to a Baxter DUO mixing syringe and extruded to form the coagulated constructs. The constructs were either directly implanted into ex vivo cartilage tissue or coagulated in 6 well tissue culture plates for 4 to 8 minutes before 4-6 ml of chondrogenic medium was added. To prevent shrinkage of the constructs during culture, the gels were held on AdminPatch microneedle arrays (AdminMed, Sunnyvale, CA) for the duration of their culture.
Osteochondral tissues were obtained from patients ranging between 60 to 70 years of age undergoing total knee arthroplasty within 4-6 hours of surgery (approved by Scripps Institutional Review Board) as previous described. Cartilage disks (6 mm in diameter and ~2-3 mm thick) were harvested from the osteochondral specimens using a sterile dermal punch. The cartilage tissue was cultured in medium consisting of DMEM (Mediatech Inc., Manassas, VA) supplemented with 10% calf serum (Omega Scientific Inc., Tarzana, CA) and 1% Penicillin-Streptomycin-Gentamycin (Life Technologies, Carlsbad, CA). Cartilage disks were maintained in 6-well plates (2-4 per well) in 8 ml medium for 72 hours before creation of the surgical defect. A flame-sterilized stainless-steel burr was used create defects approximately 2×2 mm wide and 0.5 to 1 mm deep. These defects were filled with pellets or hydrogel constructs trimmed to size using 2 mm dermal biopsy punches. […]

[2] = test system: ex vivo human meniscus tissue; assay: ES-MSC on growth factor conjugated collagen scaffolds implanted into ex vivo human meniscus defects; type: cell-based; conditions: growth factor conjugated scaffold, 2 weeks in vitro, 5 weeks in ex vivo meniscus defect; ES-MSC from SB525334
Procedure: In a similar experiment, meniscus cartilage-like tissues produced by seeding ES-MSC derived from ALK-5 inhibitor SB525334 upon blow spun collagen scaffolds were implanted into ex vivo human meniscus defects. ES-MSC were seeded upon a glutaraldehyde crosslinked pneumatospun collagen type I scaffold (3.5×1 mm disks) that was conjugated with growth factors (TGFb1, TGFb3 or PDGFbb) or unconjugated (control). After 2 weeks in differentiation medium in vitro, the disks were implanted into 3.5 mm defects formed in ex vivo human meniscus tissue and cultured for 5 weeks.

Molecule: COc1nnc2ccc(N3CCC(c4ccc(OCCN5CCN(C)C(=O)[C@H]5C)cc4)CC3)nn12 [AZD5153]
- induction of MSC phenotype (pluripotent stem cells): successfully induced MSC phenotype

Molecule: Cc1c[nH]c(-c2cnc(NCCNc3ccc(C#N)cn3)nc2-c2ccc(Cl)cc2Cl)n1 [CHIR99021]
- collagen type II immunocytochemical staining of chondroprogenitors (hiPSC): abundant collagen type II immunocytochemical staining

Molecule: O=C(NC1CCOCC1)c1ccc(-c2cc(-c3c[nH]nc3-c3ccccn3)ccn2)cc1 [GW788388]
- cartilage-like tissue formation in high density pellets (HADC 100 ES-MSC): also produced cartilage-like tissue
- cartilaginous neo-tissue formation in ex vivo osteoarthritic explants [1]: formed equally well

Molecule: Cc1cn(CCN2CCN(c3ccccc3-c3cc(C#N)cc(C(=O)NCCCN4CCCC4)c3)CC2)c2ccccc12 [LLY-507]
- induction of MSC phenotype (pluripotent stem cells): successfully induced MSC phenotype

Molecule: C/C(=C\c1ccc(C(=O)O)cc1)c1ccc2c(c1)C(C)(C)CCC2(C)C [TTNPB]
- collagen type II immunocytochemical staining of chondroprogenitors (hiPSC): abundant collagen type II immunocytochemical staining

Molecule: TGFβ1: growth factor conjugated to pneumatospun collagen type I scaffold
- collagen type of neo-meniscus like ECM [2]: higher in collagen type II

B1: TGFb3: growth factor conjugated to pneumatospun collagen type I scaffold (protein, UniProt P10600 301-412, looked up)
Transforming growth factor …: ALDTNYCFRNLEENCCVRPLYIDFRQDLGWKWVHEPKGYYANFCSGPCPYLRSADTTHSTVLGLYNTLNPEASASPCCVPQDLEPLTILYYVGRTPKVEQLSNMVVKSCKCS
modifications: conjugated to collagen type I scaffold
- collagen type of neo-meniscus like ECM [2]: higher in collagen type II

B2: PDGFbb: growth factor conjugated to pneumatospun collagen type I scaffold (protein, UniProt P01127 82-190, looked up)
Platelet-derived growth …: SLGSLTIAEPAMIAECKTRTEVFEISRRLIDRTNANFLVWPPCVEVQRCSGCCNNRNVQCRPTQVQLRPVQVRKIEIVRKKPIFKKATVTLEDHLACKCETVAAARPVT
modifications: BB homodimer; conjugated to collagen scaffold
- collagen type of neo-meniscus like ECM [2]: both collagen type I and II rich ECM
